What was measured:
[1] = system: N2a cells expressing APPswe/PS1 wt; test: Aβ secretion, metabolic labeling and anti-Aβ immunoprecipitation, SDS-PAGE/fluorography; type: cell-based, murine
Description: (§1) Cells were then metabolically labeled for four hours, again in the absence or presence of autophagy inhibitors. The growth medium was collected and subjected to immunoprecipitation with an anti-Aβ monoclonal antibody that recognizes both Aβ1-40 and Aβ1-42. Labeled Aβ was resolved by SDS-PAGE and fluorography (FIG. 10A).

[2] = system: N2a cells expressing APPswe/PS1Δ9; test: as above; type: cell-based, murine
Description: as §1

[3] = system: primary cortical neurons from normal mouse embryos; test: Secreted Aβ by ELISA in primary cortical neuronal cultures; type: cell-based
Procedure: We have confirmed this effect of the autophagy inhibitor 3MA on Aβ production in primary cortical neuronal cultures derived from normal mouse embryos (FIG. 11). Following a media change, cultures were incubated in the presence or absence of 3MA for six hours. […] Dissected embryonic cortical tissue from Sprague-Dawley rat embryos (18d gestation) or mouse embryos (17d gestation) is rinsed with calcium/magnesium-free Hanks buffered saline solution and resuspended in 5.0 ml 0.125% trypsin and 0.5 mM EDTA at 37° C. […] Trypsin is quenched and the cells are plated at 1.5×10^6 cells/mL on polylysine coated plates and cultured at 37° C. in 5% CO2 in B27/Neurobasal medium (Gibco/BRL, Gaithersburg, Md.) containing 0.0015% fluorodeoxyuridine (FUDR), giving cultures that are >95% neuronal. For the Aβ sandwich ELISA, Nunc-Immuno Plates (Nunc A/S, Roskilde, Denmark) were coated overnight using 4° C. using antibodies specific for Aβ40 or Aβ42 in 100 mM bicarbonate buffer, pH 9.6. […] Immediately prior to being loaded on the ELISA, 1 ml of the brain homogenate was extracted in diethylamine (Sigma, St. Lousi, Minn.) by adding an equal volume of 0.4% DEA in 100 mM NaCl, re-homogenized and centrifuged for 1 hour at 100,000×g. […] Alternatively, conditioned media collected from cells was loaded neat and 1:2. Aβ-40 and Aβ-42 peptide standards were purchased from American Peptide Co. (Sunnyvale, Calif.), stored at −70° C., and diluted in EC buffer immediately prior to use. ELISA plates were incubated overnight with 4° C. with samples and standards. Aβ was detected by incubating for 4 hours at room temperature with an HRP-conjugated anti-Aβ antibody in 20 mM Na phosphate, 2 mM EDTA, 400 mM Nacl, 1.0% BSA. ELISA plates were developed using a color reaction (ABTS Peroxide Substrate System, Kirkegaard & Perry, Gaithersburg, Md.) and the OD450 read.

[4] = system: N2a cells expressing APPswe/PS1Δ9; test: Tau protein levels by Western blot; type: cell-based, murine; conditions: for increase in tau protein levels: FIG. 10C; for tau protein levels (Western blot): figure legend FIG. 10C
Procedure: There are numerous assays for tau known in the art. For example, the processing of tau by immunocytochemistry and Western blot analysis is performed using an antibody that recognizes both phosphorylated and non-phosphorylated forms (Adamec et al., Brain Res. 757:93–101, 1997). Abnormal tau conformation and byperphosphorylated tau is examined using suitable monoclonal antibodies (e.g., MC1 (Jicha et al., J. Neurosci. Res. 48:128–132) and AT8 (Innogenetics, Gent, Belgium)). EM analysis can be performed to characterize cytoskeletal changes in neurons (Nixon, Bioessays 20:798–807, 1998).

[5] = system: N2a cells expressing APPswe/PS1 wt; test: Secreted Aβ in conditioned medium by ELISA; type: cell-based, murine
Procedure: (§2) In a second set of experiments, N2a cells expressing APPswe/PS1 wt or APPswe/PS1Δ9 were incubated either in the presence or absence of 5 mM 3MA (FIG. 10B). Conditioned medium was collected and pooled from two plates and spun at 1000×g to remove cells and cellular debris. The amount of secreted Aβ was then determined using ELISA. In both APPswe/PS1 wt and APPswe/PS1 Δ9 N2A cells incubated in the presence of 3MA, there was a reduction of Aβ1-40 and Aβ1-42 in the conditioned medium (FIG. 10B). While the decrease was greatest in the N2A cells expressing mutant PS1, we found a significant decrease of approximately 20% or great for both Aβ species in both the wild-type and Δ9 PS1 expressing lines.
(§3) For the Aβ sandwich ELISA, Nunc-Immuno Plates (Nunc A/S, Roskilde, Denmark) were coated overnight using 4° C. using antibodies specific for Aβ40 or Aβ42 in 100 mM bicarbonate buffer, pH 9.6. Remaining protein binding sites were blocked by incubating with 1% Block Ace (Yukijirushi Milk, Sapporo Japan) in PBS for 4 hours at room temperature. 10% (w/v) homogenates were prepared from a hemibrain in 20 MM Tris, 250 mM sucrose, 1 mM EDTA, 1 mM EGTA, protease inhibitors, pH 7.4, and stored frozen at −70° C. Immediately prior to being loaded on the ELISA, 1 ml of the brain homogenate was extracted in diethylamine (Sigma, St. Lousi, Minn.) by adding an equal volume of 0.4% DEA in 100 mM NaCl, re-homogenized and centrifuged for 1 hour at 100,000×g. The supernatant was collected, neutralized with 0.1 volume 0.5 M Tris, pH 6.8, and loaded in duplicate wells both neat and diluted 1:2 in EC buffer (20 mM Na phosphate, 2 mM EDTA, 400 mM NaCl, 0.2% BSA, 0.4% Block Ace, 0.95% CHAPS). […] Alternatively, conditioned media collected from cells was loaded neat and 1:2. Aβ-40 and Aβ-42 peptide standards were purchased from American Peptide Co. (Sunnyvale, Calif.), stored at −70° C., and diluted in EC buffer immediately prior to use. ELISA plates were incubated overnight with 4° C. with samples and standards. Aβ was detected by incubating for 4 hours at room temperature with an HRP-conjugated anti-Aβ antibody in 20 mM Na phosphate, 2 mM EDTA, 400 mM Nacl, 1.0% BSA. ELISA plates were developed using a color reaction (ABTS Peroxide Substrate System, Kirkegaard & Perry, Gaithersburg, Md.) and the OD450 read.

[6] = system: N2a cells expressing APPswe/PS1Δ9; test: Secreted Aβ in conditioned medium by ELISA; type: cell-based, murine; conditions: 5 mM 3MA, FIG. 10B
Procedure: as §2, §3

[7] = 10 mM inhibitor (leucine and histidine 10 mM each), four hours metabolic labeling, growth medium, FIG. 10A top panel
[8] = 10 mM inhibitor, C-terminal antibody, FIG. 10A bottom panel
[9] = six hours incubation, ELISA, FIG. 11

Row | Structure (SMILES) | amount of Aβ secreted [1, 7] | amount of full-length APP immunoprecipitated from cell lysates [1, 8] | Aβ generation (autoradiograph) ([1]; figure legend FIG. 10A, neuroblastoma cells, both lines shown) | amount of Aβ secreted [2, 7] | amount of full-length APP immunoprecipitated from cell lysates [2, 8] | Aβ secretion into the media ([3]; figure legend FIG. 11) | reduction of Aβ40 secreted into the media [3, 9] | reduction of Aβ42 secreted into the media [3, 9] | increase in tau protein levels ([4]; 3MA-treated, concentration not given) | tau protein levels (Western blot) [4] | decrease of Aβ1-40 in conditioned medium ([5]; 5 mM 3MA, ELISA, FIG. 10B) | decrease of Aβ1-42 in conditioned medium ([5]; 5 mM 3MA, ELISA, FIG. 10B) | Aβ secretion into the growth media (ELISA) ([5]; figure legend FIG. 10B, N2a cells, both lines shown) | decrease of Aβ1-40 in conditioned medium [6] | decrease of Aβ1-42 in conditioned medium [6] | increase in tau protein levels ([4]; vinblastine 50 μM)
1 | Cn1cnc(N)c2ncnc1-2 [3MA, 3-methyladenine] | reduced | did not affect | decreased | reduced | did not affect | reduction | approximately 20% | approximately 20% | approximately 2 times | increased | ≥ 20% | ≥ 20% | decreased | ≥ 20% | ≥ 20% | –
2 | CC[C@]1(O)C[C@@H]2CN(CCc3c([nH]c4ccccc34)[C@@](C(=O)OC)(c3cc4c(cc3OC)N(C)[C@H]3[C@@](O)(C(=O)OC)[C@H](OC(C)=O)[C@]5(CC)C=CCN6CC[C@]43[C@@H]65)C2)C1 [vinblastine] | – | – | – | – | – | – | – | – | – | increased | – | – | – | – | – | ~2.5 times

— patent publication US7090987B1, “Methods for the identification of compounds for the treatment of neuronal atrophy-associated dementia” (priority 1999, dated 2006)
